Data published in ChEMBL document CHEMBL1201862, “PubChem BioAssay data set” (2004).
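Cells were grown in 96-well plates and exposed to each compound for 48 hours at five concentrations; endpoints were interpolated linearly between bracketing concentrations, or set to the highest concentration if not reached. Here, GI50 denotes the concentration required for 50% inhibition of growth.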 Activity calls are given as the source filed them. No stated cut-off is given here; in the data, active = GI50 up to about 1.1 µM and inactive = higher.

Experiments:
Experiment in all cases: NCI anticancer screen, dose series, 48 h
[1] = tested on: 786-0
[2] = tested on: A498
[3] = tested on: ACHN
[4] = tested on: CAKI-1
[5] = tested on: CCRF-CEM
[6] = tested on: COLO 205
[7] = tested on: DLD-1
[8] = tested on: DMS-114
[9] = tested on: DMS-273
[10] = tested on: HCC 2998
[11] = tested on: HCT-116
[12] = tested on: HL-60
[13] = tested on: HOP-62
[14] = tested on: HOP-92
[15] = tested on: IGROV-1
[16] = tested on: K562
[17] = tested on: LOX IMVI
[18] = tested on: LXFL 529
[19] = tested on: M14
[20] = tested on: M19-MEL
[21] = tested on: MOLT-4
[22] = tested on: Malme-3M
[23] = tested on: NCI-H226
[24] = tested on: NCI-H23
[25] = tested on: NCI-H522
[26] = tested on: OVCAR-4
[27] = tested on: RPMI-8226
[28] = tested on: RXF 631
[29] = tested on: SF-268
[30] = tested on: SF-539
[31] = tested on: SK-MEL-28
[32] = tested on: SK-MEL-2
[33] = tested on: SK-OV-3
[34] = tested on: SN12C
[35] = tested on: SNB-75
[36] = tested on: SNB-78
[37] = tested on: SR
[38] = tested on: UACC-62
[39] = tested on: UO-31
[40] = tested on: XF498

Measured: GI50

C[C@@H]1CC2(N=CCS2)[C@]2(O)O[C@@H]3C[C@@]4(C)[C@H](C[C@H]3O[C@@H]2O1)C[C@H]1O[C@]12[C@@H]4[C@H](O)C(=O)[C@]1(C)C(C3=CC(=O)OC3)CC[C@]21O (stereo not given in full)
active: [1] < 10 nM | [2] 13.8 nM | [3] < 10 nM | [4] 11 nM | [5] < 10 nM | [6] 30.4 nM | [7] < 10 nM | [8] < 10 nM | [9] < 10 nM | [10] 28.1 nM | [11] < 10 nM | [12] 12.3 nM | [13] < 10 nM | [14] 30.6 nM | [15] 25.4 nM | [16] 19.4 nM | [17] 11.4 nM | [18] < 10 nM | [19] 22.7 nM | [20] 28.2 nM | [21] < 10 nM | [22] 12.9 nM | [23] 29.2 nM | [24] < 10 nM | [25] < 10 nM | [26] < 10 nM | [27] 22 nM | [28] 25.1 nM | [29] < 10 nM | [30] < 10 nM | [31] 25.5 nM | [32] 26.4 nM | [33] 31.4 nM | [34] < 10 nM | [35] 28.9 nM | [36] 13.2 nM | [37] < 10 nM | [38] 22.9 nM | [39] 28.4 nM | [40] 18.7 nM
